This experiment relates to L1210 leukemia ip in BDF1 mice, survival T/C. In words: NCI In Vivo Anticancer Drug Screen. Data for tumor model L1210 Leukemia (intraperitoneal) in B6D2F1 (BDF1) mice. As to conditions: endpoint: mean survival time, higher = longer survival. In a few lines:
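Ratio derived from survival: compound-dosed mice over vehicle-dosed mice, all bearing a transplantable tumor.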

[1] abbreviates: dose: 100.0 mg/kg/injection, schedule: Q01DX001 (ip), vehicle: Klucel (hydroxypropylcellulose) (HPC).
The mark [2] stands for this setting: dose: 200.0 mg/kg/injection, schedule: Q01DX001 (ip), vehicle: Klucel (hydroxypropylcellulose) (HPC).
[3] abbreviates: dose: 100.0 mg/kg/injection, schedule: Q01DX009 (ip), vehicle: saline with Tween-80.
Setting [4] is: dose: 100.0 mg/kg/injection, schedule: Q04DX003 (ip), vehicle: saline with Tween-80.
The mark [5] stands for this setting: dose: 200.0 mg/kg/injection, schedule: Q04DX003 (ip), vehicle: saline with Tween-80.
Setting [6] is: dose: 400.0 mg/kg/injection, schedule: Q01DX009 (ip), vehicle: saline with Tween-80.
[7] abbreviates: dose: 400.0 mg/kg/injection, schedule: Q04DX003 (ip), vehicle: saline with Tween-80.
The mark [8] stands for this setting: dose: 100.0 mg/kg/injection, schedule: Q01DX001 (ip), vehicle: carboxymethylcellulose (CMC).
[9] abbreviates: dose: 200.0 mg/kg/injection, schedule: Q01DX001 (ip), vehicle: carboxymethylcellulose (CMC).
Where [10] appears, read: dose: 400.0 mg/kg/injection, schedule: Q01DX001 (ip), vehicle: carboxymethylcellulose (CMC).
[11] abbreviates: dose: 100.0 mg/kg/injection, schedule: Q01DX001 (ip), vehicle: saline.
[12] abbreviates: dose: 200.0 mg/kg/injection, schedule: Q01DX001 (ip), vehicle: saline.
The mark [13] stands for this setting: dose: 400.0 mg/kg/injection, schedule: Q01DX001 (ip), vehicle: saline.
[14] abbreviates: dose: 100.0 mg/kg/injection, schedule: Q01DX009 (ip), vehicle: Klucel (hydroxypropylcellulose) (HPC).
The mark [15] stands for this setting: dose: 200.0 mg/kg/injection, schedule: Q01DX009 (ip), vehicle: Klucel (hydroxypropylcellulose) (HPC).
Setting [16] is: dose: 400.0 mg/kg/injection, schedule: Q01DX009 (ip), vehicle: Klucel (hydroxypropylcellulose) (HPC).

The structures appear in SMILES notation. Several values for one entry are separate records, joined by “and”; a condition that tells them apart may be missing. Equal entries are not always repeated. Inconclusive results and toxic doses are left out.

Experimental findings from PubChem BioAssay AID248 (DTP/NCI, 2004) are described below.

`CCOC(=O)C(C)(C)CO`: the T/C was 103 % of control (dose: 200.0 mg/kg/injection, schedule: Q04DX003 (ip), vehicle: saline sonified); 93 % of control (dose: 400.0 mg/kg/injection, schedule: Q04DX003 (ip), vehicle: saline sonified); 101 % of control (dose: 800.0 mg/kg/injection, schedule: Q04DX003 (ip), vehicle: saline sonified).

With `CCCCCCCCN=[N+](C)[O-]`, the T/C (dose: 100.0 mg/kg/injection, schedule: Q04DX002 (ip), vehicle: Klucel (hydroxypropylcellulose) (HPC)) was 97 % of control and the T/C (dose: 200.0 mg/kg/injection, schedule: Q04DX002 (ip), vehicle: Klucel (hydroxypropylcellulose) (HPC)) was 93 % of control.

For the compound `CCOc1ccc(NC(C)=O)cc1CN(CCCl)CCBr`, the T/C was 97 % of control under setting [1]; 111 % of control under setting [2]; 100 % of control (dose: 400.0 mg/kg/injection, schedule: Q01DX001 (ip), vehicle: Klucel (hydroxypropylcellulose) (HPC)).

Regarding `CN(C)P1(=O)OCC(C(C)(C)C)CO1` (configuration not stated), for the setting “dose: 100.0 mg/kg/injection, schedule: Q04DX003 (ip), vehicle: saline”, the T/C was 112 % of control.

Turning to `CN=C(NO)c1ccccc1`, the T/C under setting [1] is 107 % of control and the T/C under setting [2] is 98 % of control.

For `Cc1nc2c(O)ccc(O)c2nc1C`, the T/C by setting is: (dose: 3.12 mg/kg/injection, schedule: Q04DX003 (ip), vehicle: saline with Tween-80) 100 % of control; (dose: 6.25 mg/kg/injection, schedule: Q04DX003 (ip), vehicle: saline with Tween-80) 96 % of control; (dose: 12.5 mg/kg/injection, schedule: Q01DX009 (ip), vehicle: saline with Tween-80) 94 % of control; (dose: 12.5 mg/kg/injection, schedule: Q04DX003 (ip), vehicle: saline with Tween-80) 100 % of control; (dose: 25.0 mg/kg/injection, schedule: Q01DX009 (ip), vehicle: saline with Tween-80) 96 % of control; (dose: 50.0 mg/kg/injection, schedule: Q01DX009 (ip), vehicle: saline with Tween-80) 94 % of control.

For `NC(CSS(=O)(=O)O)=NCCCCc1ccccc1`, the T/C (dose: 12.5 mg/kg/injection, schedule: Q04DX002 (ip), vehicle: Klucel (hydroxypropylcellulose) (HPC)) is 91 % of control and the T/C (dose: 25.0 mg/kg/injection, schedule: Q04DX002 (ip), vehicle: Klucel (hydroxypropylcellulose) (HPC)) is 102 % of control.

As for `O=C(Nc1ccccc1)Nc1cc(C(F)(F)F)ccc1Cl`, the T/C is, setting by setting: under setting [3], 86 % of control; under setting [4], 91 % of control; under setting [5], 90 % of control; under setting [6], 92 % of control; under setting [7], 95 % of control.

`CCCCCCOc1ccc(C(=O)C(=O)c2ccccc2)cc1`: the T/C runs as follows: under setting [8], 109 % of control; under setting [9], 88 % of control; under setting [10], 97 % of control.

As to `CN(C)C(Cc1ccccc1)(C(=O)O)c1ccccc1` (configuration not stated), the T/C by setting is: under setting [11], 96 % of control; under setting [12], 91 % of control; under setting [13], 88 % of control.

`CC(=O)CCCOc1ccc([N+](=O)[O-])cc1`: the T/C runs as follows: under setting [11], 98 % of control; under setting [12], 98 % of control; under setting [13], 101 % of control.

On to `O=C1C(NC(=O)C2CCCCC2)=C(N2CC2)C(=O)C(NC(=O)C2CCCCC2)=C1N1CC1`, for which the T/C by setting is: (dose: 50.0 mg/kg/injection, schedule: Q01DX010 (ip), vehicle: saline) 93 % of control and 101 % of control; (dose: 50.0 mg/kg/injection, schedule: Q01DX Z (ip), vehicle: Klucel (hydroxypropylcellulose) (HPC)) 105 % of control; (dose: 78.0 mg/kg/injection, schedule: Q01DX Z (ip), vehicle: carboxymethylcellulose (CMC)) 115 % of control; (dose: 100.0 mg/kg/injection, schedule: Q01DX010 (ip), vehicle: saline) 101 % of control and 104 % of control; (dose: 100.0 mg/kg/injection, schedule: Q01DX Z (ip), vehicle: Klucel (hydroxypropylcellulose) (HPC)) 109 % of control; (dose: 117.0 mg/kg/injection, schedule: Q01DX Z (ip), vehicle: carboxymethylcellulose (CMC)) 104 % of control. Besides, the T/C by setting is: (dose: 175.0 mg/kg/injection, schedule: Q01DX Z (ip), vehicle: carboxymethylcellulose (CMC)) 119 % of control; (dose: 200.0 mg/kg/injection, schedule: Q01DX010 (ip), vehicle: saline) 98 % of control and 115 % of control; (dose: 263.0 mg/kg/injection, schedule: Q01DX Z (ip), vehicle: carboxymethylcellulose (CMC)) 150 % of control; (dose: 400.0 mg/kg/injection, schedule: Q01DX010 (ip), vehicle: saline) 98 % of control and 104 % of control; (dose: 400.0 mg/kg/injection, schedule: Q01DX Z (ip), vehicle: Klucel (hydroxypropylcellulose) (HPC)) 102 % of control; (dose: 440.0 mg/kg/injection, schedule: Q01DX001 (ip), vehicle: carboxymethylcellulose (CMC)) 102 % of control and 119 % of control. The T/C is, setting by setting: (dose: 670.0 mg/kg/injection, schedule: Q01DX001 (ip), vehicle: carboxymethylcellulose (CMC)) 103 % of control and 91 % of control; (dose: 1000.0 mg/kg/injection, schedule: Q01DX001 (ip), vehicle: carboxymethylcellulose (CMC)) 101 % of control and 103 % of control.

In the case of `CC(C)(C)O[Si](C)(C)CCl`, the T/C is 92 % of control under setting [8], 92 % of control under setting [9] and 92 % of control under setting [10].

As for `CCCCCCCCCCCCCCCCCCSC(C)(C)SCCCCCCCCCCCCCCCCCC`, the T/C was 106 % of control (dose: 100.0 mg/kg/injection, schedule: Q04DX002 (ip), vehicle: saline with Tween-80); 89 % of control (dose: 200.0 mg/kg/injection, schedule: Q04DX002 (ip), vehicle: saline with Tween-80); 92 % of control (dose: 400.0 mg/kg/injection, schedule: Q04DX002 (ip), vehicle: saline with Tween-80).

`CCCCCCC(C)OC(=O)CCSCCC(=O)OC(C)CCCCCC` (configuration not stated): the T/C runs as follows: under setting [11], 98 % of control; under setting [12], 94 % of control; under setting [13], 86 % of control.

For the compound `O=S(=O)(N/N=C/c1cc(Cl)ccc1O)c1cc(Cl)c(Cl)cc1Cl`, the T/C is 107 % of control (dose: 5.0 mg/kg/injection, schedule: Q01DX Z (ip), vehicle: other); 110 % of control (dose: 10.0 mg/kg/injection, schedule: Q01DX Z (ip), vehicle: other); 105 % of control (dose: 20.0 mg/kg/injection, schedule: Q01DX Z (ip), vehicle: other).

In the case of `Fc1ccccc1CSc1ncnc2nc[nH]c12`, the T/C was 115 % of control (dose: 40.0 mg/kg/injection, schedule: Q01DX009 (ip), vehicle: saline); 157 % of control (dose: 150.0 mg/kg/injection, schedule: Q01DX009 (ip), vehicle: saline); 117 % of control and 118 % of control (dose: 175.0 mg/kg/injection, schedule: Q01DX001 (ip), vehicle: saline); 112 % of control and 120 % of control (dose: 265.0 mg/kg/injection, schedule: Q01DX001 (ip), vehicle: saline); 122 % of control under setting [13]; 100 % of control (dose: 600.0 mg/kg/injection, schedule: Q01DX001 (ip), vehicle: saline).

In the case of `C/C=C/c1cc(OC)cc(C2(O)OC(=O)c3c(OC)cccc32)c1OC` (configuration not stated), the T/C is 105 % of control under setting [4], 94 % of control under setting [5] and 100 % of control under setting [7].

As to `CCCOP(=S)(NCCOC)OCCC`, the T/C is, setting by setting: under setting [3], 97 % of control; (dose: 200.0 mg/kg/injection, schedule: Q01DX009 (ip), vehicle: saline with Tween-80) 100 % of control; under setting [6], 89 % of control.

For the compound `CC(C)(C)c1ccc(OC(=O)Nc2ccc(Cl)cc2[N+](=O)[O-])c(Br)c1`, the T/C is 98 % of control under setting [14], 93 % of control under setting [15] and 98 % of control under setting [16].

Regarding `Cc1cc2c(cc1C)/C(=N/O)CCC2`, the T/C was 100 % of control under setting [14], 101 % of control under setting [15] and 101 % of control under setting [16].
